Test results published in PubChem BioAssay AID248 (DTP/NCI, 2004).
Inconclusive results and toxic doses are left out. No stated cut-off is given here; in the data, active means T/C of 150% or more; inactive means T/C below 125%.

System: L1210 leukemia ip in BDF1 mice, survival T/C
Experiment: NCI In Vivo Anticancer Drug Screen. Data for tumor model L1210 Leukemia (intraperitoneal) in B6D2F1 (BDF1) mice
Conditions: endpoint: mean survival time, higher = longer survival
Method in brief: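 Transplantable tumor model; survival measured in treated vs vehicle control mice. Value = treated/control.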

[1] = dose: 100.0 mg/kg/injection, schedule: Q04DX003 (ip), vehicle: Klucel (hydroxypropylcellulose) (HPC)
[2] = dose: 200.0 mg/kg/injection, schedule: Q04DX003 (ip), vehicle: Klucel (hydroxypropylcellulose) (HPC)
[3] = dose: 100.0 mg/kg/injection, schedule: Q01DX001 (ip), vehicle: saline
[4] = dose: 200.0 mg/kg/injection, schedule: Q01DX001 (ip), vehicle: saline
[5] = dose: 400.0 mg/kg/injection, schedule: Q01DX001 (ip), vehicle: saline
[6] = dose: 200.0 mg/kg/injection, schedule: Q01DX001 (ip), vehicle: other
[7] = dose: 100.0 mg/kg/injection, schedule: Q04DX003 (ip), vehicle: saline with Tween-80
[8] = dose: 200.0 mg/kg/injection, schedule: Q04DX003 (ip), vehicle: saline with Tween-80
[9] = dose: 400.0 mg/kg/injection, schedule: Q04DX003 (ip), vehicle: saline with Tween-80

Measured: T/C

COc1ccc(C2(C)OC(=O)c3ccccc32)c2ccccc12 (stereo unspecified)
inactive: dose: 100.0 mg/kg/injection, schedule: Q01DX001 (ip), vehicle: saline with Tween-80 94 % of control | dose: 200.0 mg/kg/injection, schedule: Q01DX001 (ip), vehicle: saline with Tween-80 100 % of control | dose: 400.0 mg/kg/injection, schedule: Q01DX001 (ip), vehicle: saline with Tween-80 87 % of control

CCCCCCCCCCCCCCCC1=NN(c2ccc([N+](=O)[O-])cc2)C(=O)C1
inactive: [1] 94 % of control | [2] 89 % of control | dose: 400.0 mg/kg/injection, schedule: Q04DX003 (ip), vehicle: Klucel (hydroxypropylcellulose) (HPC) 100 % of control

c1ccc(C2(c3ccccc3)c3ccc([nH]3)C(c3ccccc3)(c3ccccc3)c3ccc([nH]3)C(c3ccccc3)(c3ccccc3)c3ccc([nH]3)C(c3ccccc3)(c3ccccc3)c3ccc2[nH]3)cc1
inactive: [3] 97 % of control | [4] 100 % of control | [5] 100 % of control

c1ccc([P+](c2ccccc2)(c2ccccc2)c2ccc([P+](c3ccccc3)(c3ccccc3)c3ccccc3)c3ccccc23)cc1
inactive: dose: 0.6 mg/kg/injection, schedule: Q04DX003 (ip), vehicle: Klucel (hydroxypropylcellulose) (HPC) 92 % of control | dose: 1.0 mg/kg/injection, schedule: Q04DX003 (ip), vehicle: Klucel (hydroxypropylcellulose) (HPC) 92 % of control | dose: 1.5 mg/kg/injection, schedule: Q04DX003 (ip), vehicle: Klucel (hydroxypropylcellulose) (HPC) 92 % of control | dose: 2.25 mg/kg/injection, schedule: Q04DX003 (ip), vehicle: Klucel (hydroxypropylcellulose) (HPC) 92 % of control | dose: 3.12 mg/kg/injection, schedule: Q04DX003 (ip), vehicle: Klucel (hydroxypropylcellulose) (HPC) 96 % of control | dose: 6.25 mg/kg/injection, schedule: Q04DX003 (ip), vehicle: Klucel (hydroxypropylcellulose) (HPC) 94 % of control

CN(C)C=Nc1cccc2cn[nH]c12
inactive: dose: 100.0 mg/kg/injection, schedule: Q04DX002 (ip), vehicle: saline with Tween-80 106 % of control | dose: 200.0 mg/kg/injection, schedule: Q04DX002 (ip), vehicle: saline with Tween-80 106 % of control | dose: 400.0 mg/kg/injection, schedule: Q04DX002 (ip), vehicle: saline with Tween-80 98 % of control

CCN(CC)C(=O)CCc1ccccc1
inactive: dose: 100.0 mg/kg/injection, schedule: Q01DX009 (ip), vehicle: saline with Tween-80 108 % of control | dose: 200.0 mg/kg/injection, schedule: Q01DX009 (ip), vehicle: saline with Tween-80 100 % of control

CCOP(=S)(OCC)Oc1ccc(Sc2ccc(OP(=S)(OCC)OCC)cc2)cc1
inactive: [3] 101 % of control | [4] 101 % of control | [5] 107 % of control

CCCC(Cc1ccccc1)N1CCCC1 (stereo unspecified)
inactive: dose: 3.12 mg/kg/injection, schedule: Q01DX009 (ip), vehicle: saline 103 % of control | dose: 6.25 mg/kg/injection, schedule: Q01DX009 (ip), vehicle: saline 103 % of control | dose: 12.5 mg/kg/injection, schedule: Q01DX009 (ip), vehicle: saline 97 % of control | dose: 25.0 mg/kg/injection, schedule: Q01DX009 (ip), vehicle: saline 103 % of control | dose: 25.0 mg/kg/injection, schedule: Q04DX003 (ip), vehicle: saline 92 % of control | dose: 50.0 mg/kg/injection, schedule: Q04DX003 (ip), vehicle: saline 95 % of control

COc1ccc(C(=O)/C=C\c2ccc(OC)cc2O)cc1
inactive: dose: 50.0 mg/kg/injection, schedule: Q01DX001 (ip), vehicle: saline 100 % of control | [3] 103 % of control | [4] 97 % of control | [5] 103 % of control

Nc1cc2c(cc1Br)-c1ccc([N+](=O)[O-])cc1/C2=N\O
inactive: dose: 100.0 mg/kg/injection, schedule: Q01DX001 (ip), vehicle: carboxymethylcellulose (CMC) 113 % of control | dose: 200.0 mg/kg/injection, schedule: Q01DX001 (ip), vehicle: carboxymethylcellulose (CMC) 103 % of control | dose: 400.0 mg/kg/injection, schedule: Q01DX001 (ip), vehicle: carboxymethylcellulose (CMC) 97 % of control

CCCCCCCCCCCCCCCCC/C=N\NC(=O)CCCC(=O)N/N=C/CCCCCCCCCCCCCCCCC
inactive: dose: 50.0 mg/kg/injection, schedule: Q01DX001 (ip), vehicle: other 90 % of control | [6] 88 % of control

O=c1c(-c2ccccc2)coc2ccccc12
inactive: [7] 97 % of control | [8] 92 % of control | [9] 90 % of control

O=C(O)c1ccc(N=Cc2ccccc2O)cc1.[Co]
inactive: dose: 100.0 mg/kg/injection, schedule: Q01DX001 (ip), vehicle: other 96 % of control | [6] 112 % of control

CN(CCC#N)C1=CCCCCC1
inactive: [3] 101 % of control | [4] 97 % of control

c1ccc([Se+](c2ccccc2)c2ccccc2)cc1
inactive: dose: 0.22 mg/kg/injection, schedule: Q01DX009 (ip), vehicle: Klucel (hydroxypropylcellulose) (HPC) 98 % of control | dose: 0.39 mg/kg/injection, schedule: Q01DX009 (ip), vehicle: saline 94 % of control | dose: 0.45 mg/kg/injection, schedule: Q01DX009 (ip), vehicle: Klucel (hydroxypropylcellulose) (HPC) 110 % of control | dose: 0.78 mg/kg/injection, schedule: Q01DX009 (ip), vehicle: saline 97 % of control | dose: 1.56 mg/kg/injection, schedule: Q01DX009 (ip), vehicle: saline 87 % of control

Cn1nc(N)c2nccnc21
inactive: dose: 50.0 mg/kg/injection, schedule: Q01DX009 (ip), vehicle: saline 98 % of control | dose: 100.0 mg/kg/injection, schedule: Q01DX009 (ip), vehicle: saline 104 % of control | dose: 100.0 mg/kg/injection, schedule: Q04DX003 (ip), vehicle: alcohol 100 % of control | dose: 200.0 mg/kg/injection, schedule: Q04DX003 (ip), vehicle: alcohol 98 % of control

COc1cccc2c1C(=O)c1c(O)c3c(c(O)c1C2=O)C[C@@](O)(/C(C)=N/NC(N)=S)C[C@@H]3OC1CC(N)C(O)C(C)O1 (stereo partly specified)
inactive: dose: 0.25 mg/kg/injection, schedule: Q04DX003 (ip), vehicle: water 102 % of control | dose: 0.5 mg/kg/injection, schedule: Q04DX003 (ip), vehicle: water 110 % of control | dose: 1.0 mg/kg/injection, schedule: Q01DX009 (ip), vehicle: water 121 % of control | dose: 1.0 mg/kg/injection, schedule: Q04DX003 (ip), vehicle: water 107 % of control | dose: 2.0 mg/kg/injection, schedule: Q01DX009 (ip), vehicle: water 119 % of control | dose: 2.0 mg/kg/injection, schedule: Q04DX003 (ip), vehicle: water 104 % of control | dose: 4.0 mg/kg/injection, schedule: Q04DX003 (ip), vehicle: water 114 % of control | dose: 7.0 mg/kg/injection, schedule: Q04DX003 (ip), vehicle: water 122 % of control | dose: 8.0 mg/kg/injection, schedule: Q04DX003 (ip), vehicle: water 107 % of control | dose: 10.6 mg/kg/injection, schedule: Q04DX003 (ip), vehicle: water 120 % of control | dose: 24.0 mg/kg/injection, schedule: Q04DX003 (ip), vehicle: water 122 % of control | dose: 32.0 mg/kg/injection, schedule: Q01DX009 (ip), vehicle: water 124 % of control

CC12CCC(C(C(=O)O)C1=O)C2(C)C (stereo unspecified)
inactive: [7] 103 % of control | [8] 97 % of control | [9] 100 % of control

Cc1ccc(C(=O)C=Nc2ccc(C(=O)O)cc2)cc1
inactive: [1] 97 % of control | [2] 97 % of control
